Values quoted from earlier work as cited in US20250177439A1, “LOW DOSE PRE-MIX FEED FOR TRACE MINERAL SUPPLEMENTATION” (Chemlock Operating LLC d/b/a Chemlock Nutrition, priority 2023, published 2025).

Details: 105-140 ppm zinc compared to 132-177 pmm of zinc

Zinc chloride hydroxide monohydrate [zinc hydroxy chloride]
skin strength: enhanced the skin strength
